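48-hour exposure; five concentrations; linearly interpolated endpoints. The concentration for 50% growth inhibition is given as GI50. TGI marks complete inhibition of growth.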
Key:
Assay in all cases: inhibition of tumour cell growth, NCI panel, 48 h
LOX IMVI melanoma = system: LOX IMVI melanoma
OVCAR-8 ovarian = system: OVCAR-8 ovarian
HOP-62 NSCLC = system: HOP-62 NSCLC
UO-31 renal = system: UO-31 renal
SK-MEL-2 melanoma = system: SK-MEL-2 melanoma
UACC-257 melanoma = system: UACC-257 melanoma
SNB-19 CNS = system: SNB-19 CNS
OVCAR-3 ovarian = system: OVCAR-3 ovarian
MCF7 breast = system: MCF7 breast
U251 CNS = system: U251 CNS
IGROV1 ovarian = system: IGROV1 ovarian
HOP-92 NSCLC = system: HOP-92 NSCLC
SK-MEL-28 melanoma = system: SK-MEL-28 melanoma
A498 renal = system: A498 renal
M14 melanoma = system: M14 melanoma
SW-620 colon = system: SW-620 colon
SF-295 CNS = system: SF-295 CNS
EKVX NSCLC = system: EKVX NSCLC
BT-549 breast = system: BT-549 breast
NCI-H460 lung = system: NCI-H460 lung
NCI/ADR-RES ovarian = system: NCI/ADR-RES ovarian
SF-268 CNS = system: SF-268 CNS
MOLT-4 leukemia = system: MOLT-4 leukemia
SNB-75 CNS = system: SNB-75 CNS
SK-MEL-5 melanoma = system: SK-MEL-5 melanoma
RPMI-8226 leukemia = system: RPMI-8226 leukemia
CCRF-CEM leukemia = system: CCRF-CEM leukemia
HCT-15 colon = system: HCT-15 colon
KM12 colon = system: KM12 colon
CAKI-1 renal = system: CAKI-1 renal
MALME-3M melanoma = system: MALME-3M melanoma
PC-3 prostate = system: PC-3 prostate
OVCAR-4 ovarian = system: OVCAR-4 ovarian
A549 NSCLC = system: A549 NSCLC
DU-145 prostate = system: DU-145 prostate
TK-10 renal = system: TK-10 renal
T-47D breast = system: T-47D breast
NCI-H522 lung = system: NCI-H522 lung
OVCAR-5 ovarian = system: OVCAR-5 ovarian
HT29 colon = system: HT29 colon
HCC-2998 colon = system: HCC-2998 colon
ACHN renal = system: ACHN renal
SR leukemia = system: SR leukemia
NCI-H23 lung = system: NCI-H23 lung
MDA-MB-435 = system: MDA-MB-435
K-562 leukemia = system: K-562 leukemia
UACC-62 melanoma = system: UACC-62 melanoma
HCT-116 colon = system: HCT-116 colon
HL-60(TB) leukemia = system: HL-60(TB) leukemia
SN12C renal = system: SN12C renal
NCI-H226 lung = system: NCI-H226 lung
SK-OV-3 ovarian = system: SK-OV-3 ovarian
COLO 205 colon = system: COLO 205 colon
SF-539 CNS = system: SF-539 CNS
786-0 renal = system: 786-0 renal
MDA-MB-231 breast = system: MDA-MB-231 breast

CC1SC(c2cccc(Oc3ccccc3)c2)N(CCc2cccs2)C1=O (configuration not stated)
GI50 (LOX IMVI melanoma): 0.883 µM | TGI (LOX IMVI melanoma): 2.11 µM | GI50 (OVCAR-8 ovarian): 1.49 µM | TGI (OVCAR-8 ovarian): 5.06 µM | GI50 (HOP-62 NSCLC): 1.6 µM | TGI (HOP-62 NSCLC): 3.42 µM | GI50 (UO-31 renal): 0.469 µM | TGI (UO-31 renal): 1.9 µM | GI50 (SK-MEL-2 melanoma): 1.03 µM | TGI (SK-MEL-2 melanoma): 2.31 µM | GI50 (UACC-257 melanoma): 1.25 µM | TGI (UACC-257 melanoma): 3.3 µM | GI50 (SNB-19 CNS): 1.64 µM | TGI (SNB-19 CNS): 9.01 µM | GI50 (OVCAR-3 ovarian): 1.08 µM | TGI (OVCAR-3 ovarian): 2.3 µM | GI50 (MCF7 breast): 0.551 µM | TGI (MCF7 breast): 5.07 µM | GI50 (U251 CNS): 1.11 µM | TGI (U251 CNS): 2.49 µM | GI50 (IGROV1 ovarian): 1.07 µM | TGI (IGROV1 ovarian): 3.33 µM | GI50 (HOP-92 NSCLC): 0.486 µM | TGI (HOP-92 NSCLC): 1.86 µM | GI50 (SK-MEL-28 melanoma): 1.42 µM | TGI (SK-MEL-28 melanoma): 2.78 µM | GI50 (A498 renal): 1.21 µM | TGI (A498 renal): 2.46 µM | GI50 (M14 melanoma): 1.02 µM | TGI (M14 melanoma): 2.34 µM | GI50 (SW-620 colon): 1.4 µM | TGI (SW-620 colon): 3 µM | GI50 (SF-295 CNS): 0.725 µM | TGI (SF-295 CNS): 2.23 µM | GI50 (EKVX NSCLC): 0.368 µM | TGI (EKVX NSCLC): 1.92 µM | GI50 (BT-549 breast): 1.04 µM | TGI (BT-549 breast): 2.4 µM | GI50 (NCI-H460 lung): 1.09 µM | TGI (NCI-H460 lung): 2.49 µM | GI50 (NCI/ADR-RES ovarian): 0.708 µM | TGI (NCI/ADR-RES ovarian): 3.01 µM | GI50 (SF-268 CNS): 1.18 µM | TGI (SF-268 CNS): 3.6 µM | GI50 (MOLT-4 leukemia): 0.77 µM | TGI (MOLT-4 leukemia): 4.97 µM | GI50 (SNB-75 CNS): 1.3 µM | TGI (SNB-75 CNS): 3.71 µM | GI50 (SK-MEL-5 melanoma): 0.607 µM | TGI (SK-MEL-5 melanoma): 1.87 µM | GI50 (RPMI-8226 leukemia): 0.542 µM | TGI (RPMI-8226 leukemia): 2.94 µM | GI50 (CCRF-CEM leukemia): 0.747 µM | TGI (CCRF-CEM leukemia): > 24 µM | GI50 (HCT-15 colon): 1.08 µM | TGI (HCT-15 colon): 3.77 µM | GI50 (KM12 colon): 0.626 µM | TGI (KM12 colon): 2.49 µM | GI50 (CAKI-1 renal): 0.519 µM | TGI (CAKI-1 renal): 3.37 µM | GI50 (MALME-3M melanoma): 1.73 µM | TGI (MALME-3M melanoma): 3.58 µM | GI50 (PC-3 prostate): 0.595 µM | TGI (PC-3 prostate): 3.37 µM | GI50 (OVCAR-4 ovarian): 0.425 µM | TGI (OVCAR-4 ovarian): 1.88 µM | GI50 (A549 NSCLC): 0.864 µM | TGI (A549 NSCLC): 3.67 µM | GI50 (DU-145 prostate): 1.6 µM | TGI (DU-145 prostate): 3.88 µM | GI50 (TK-10 renal): 1.59 µM | TGI (TK-10 renal): 4.28 µM | GI50 (T-47D breast): 0.594 µM | TGI (T-47D breast): 5.11 µM | GI50 (NCI-H522 lung): 0.717 µM | TGI (NCI-H522 lung): 2.12 µM | GI50 (OVCAR-5 ovarian): 1.94 µM | TGI (OVCAR-5 ovarian): 5.89 µM | GI50 (HT29 colon): 1.08 µM | TGI (HT29 colon): 2.93 µM | GI50 (HCC-2998 colon): 1.88 µM | TGI (HCC-2998 colon): 5.75 µM | GI50 (ACHN renal): 1.14 µM | TGI (ACHN renal): 4.97 µM | GI50 (SR leukemia): 0.585 µM | TGI (SR leukemia): 4.19 µM | GI50 (NCI-H23 lung): 0.718 µM | TGI (NCI-H23 lung): 3.55 µM | GI50 (MDA-MB-435): 1.19 µM | TGI (MDA-MB-435): 3.14 µM | GI50 (K-562 leukemia): 0.573 µM | TGI (K-562 leukemia): 7.79 µM | GI50 (UACC-62 melanoma): 0.676 µM | TGI (UACC-62 melanoma): 2.22 µM | GI50 (HCT-116 colon): 0.457 µM | TGI (HCT-116 colon): 1.76 µM | GI50 (HL-60(TB) leukemia): 1.17 µM | TGI (HL-60(TB) leukemia): 6.56 µM | GI50 (SN12C renal): 1.25 µM | TGI (SN12C renal): 2.7 µM | GI50 (NCI-H226 lung): 1.28 µM | TGI (NCI-H226 lung): 2.94 µM | GI50 (SK-OV-3 ovarian): 1.92 µM | TGI (SK-OV-3 ovarian): 5.32 µM | GI50 (COLO 205 colon): 1.5 µM | TGI (COLO 205 colon): 3.05 µM | GI50 (SF-539 CNS): 1.5 µM | TGI (SF-539 CNS): 3.11 µM | GI50 (786-0 renal): 1.2 µM | TGI (786-0 renal): 2.83 µM | GI50 (MDA-MB-231 breast): 1.09 µM | TGI (MDA-MB-231 breast): 2.58 µM
